Results published in patent US20220008391A1, “NOVEL COMPOUNDS FOR CONTROLLING ARTHROPODS” (Bayer Animal Health GmbH, priority 2018, published 2022).
Values after ≈ are worked out from the molar mass of the structure shown.

Assay: Measurement of solubility in buffer at pH 6.5
Format: physicochemical
Conditions: aqueous buffer, kinetic from dmso stock; PBS buffer pH 6.5, shaken 24h at rt, LC-MSMS; read-out: Solubility of example compounds at pH 6.5
Protocol: Measurement of Solubility in Buffer at pH 6.5 2-4 mg of the test compound are dissolved in DMSO to reach a concentration of 50 g/L (solution A). To 10 μl of this solution 960 μl PBS buffer pH 6.5 are added (final concentration: 515 μg/1); the mixture is shaken for 24h at rt in a 96 well plate. An aliquot is centrifuged at 42000 rpm für 30 min. The supernatant is diluted with acetonitrile/water (8:2) 1:10 and 1:1000 resp. This diluted samples are analyzed by LC-MSMS. Calibration: 10 μl of solution A are diluted with 823 μl DMSO (final concentration: 600 μg/ml), which is further diluted with acetonitrile/water 8:2 by a factor of 100 (provides solution B). The calibration curve is obtained from solution B by further diluting with acetonitrile/water 8:2 with target concentrations of 1.2-12-60-600 ng/ml and injecting these four solutions for MS measurement. PBS-Puffer: 6.18 g sodium chloride and 3.96 g sodium dihydrogen phosphate are dissolved in 1 L aqua dist., the pH is adjusted to 6.5 with 1N sodium hydroxide. The following conditions were used for quantification: Autosampler without auto inject ahead setting, column: Waters OASIS HLB, 2,1×20 mm, 25μ, column temperature: 30° C., flow rate: 2.5 mL/min, injected volume: 2 μl, Splitter (before MS) 1:20.

Compound | solubility at 24 h
N#CC1(N(COC(=O)O[C@H]2CC[C@H](C(=O)O)CC2)C(=O)c2cc(-c3cnn(-c4c(Cl)cc(C(F)(C(F)(F)F)C(F)(F)F)cc4OC(F)(F)F)c3)ccc2Cl)CC1 [Example 18, Trans-4-[({[(2-chloro-5-{1-[2-chloro-4-(1,1,1,2,3,3,3-heptafluoropropan-2-yl)-6-(trifluoromethoxy)phenyl]-1H-pyrazol-4-yl}benzoyl)(1-cyanocyclopropyl)amino]methoxy}carbonyl)oxy]cyclohexane-1-carboxylic Acid] | 3 µg/mL (≈ 3.53 µM)
N#CC1(N(COC(=O)O[C@H]2CC[C@@H](OC(=O)/C=C/C(=O)O)CC2)C(=O)c2cc(-c3cnn(-c4c(Cl)cc(C(F)(C(F)(F)F)C(F)(F)F)cc4OC(F)(F)F)c3)ccc2Cl)CC1 [Example 14, (2E)-4-({cis-4-[({[(2-chloro-5-{1-[2-chloro-4-(1,1,1,2,3,3,3-heptafluoropropan-2-yl)-6-(trifluoromethoxy)phenyl]-1H-pyrazol-4-yl}benzoyl)(1-cyanocyclopropyl)amino]methoxy}carbonyl)oxy]cyclohexyl}oxy)-4-oxobut-2-enoic Acid] | 19 µg/mL (≈ 20.7 µM)
N#CC1(N(COC(=O)O[C@H]2CCC[C@@H]2OC(=O)/C=C/C(=O)O)C(=O)c2cc(-c3cnn(-c4c(Cl)cc(C(F)(C(F)(F)F)C(F)(F)F)cc4OC(F)(F)F)c3)ccc2Cl)CC1 [Example 10, (2E)-4-({(1S,2S)-2-[({[(2-chloro-5-{1-[2-chloro-4-(1,1,1,2,3,3,3-heptafluoropropan-2-yl)-6-(trifluoromethoxy)phenyl]-1H-pyrazol-4-yl}benzoyl)(1-cyanocyclopropyl)amino]methoxy}carbonyl)oxy]cyclopentyl}oxy)-4-oxobut-2-enoic Acid] | 3 µg/mL (≈ 3.31 µM)
N#CC1(N(COC(=O)O[C@H]2CCC[C@@H]2OC(=O)CCC(=O)O)C(=O)c2cc(-c3cnn(-c4c(Cl)cc(C(F)(C(F)(F)F)C(F)(F)F)cc4OC(F)(F)F)c3)ccc2Cl)CC1 [Example 11, 4-({(1S,2S)-2-[({[(2-chloro-5-{1-[2-chloro-4-(1,1,1,2,3,3,3-heptafluoropropan-2-yl)-6-(trifluoromethoxy)phenyl]-1H-pyrazol-4-yl}benzoyl)(1-cyanocyclopropyl)amino]methoxy}carbonyl)oxy]cyclopentyl}oxy)-4-oxobutanoic Acid] | 2 µg/mL (≈ 2.2 µM)
Cn1nc(C(F)(F)C(F)(F)F)c(C(F)(F)F)c1-n1cc(-c2ccc(Cl)c(C(=O)N(COC(=O)OCCCOC(=O)/C=C/C(=O)O)C3(C#N)CC3)c2)cn1 [Example 25, (12E)-1-{2-Chloro-5-[2′-methyl-5′-(pentafluoroethyl)-4′-(trifluoromethyl)-2′H-[1,3′-bipyrazol]-4-yl]phenyl}-2-(1-cyanocyclopropyl)-1,5,11-trioxo-4,6,10-trioxa-2-azatetradec-12-en-14-oic Acid] | 98 µg/mL (≈ 125 µM)
CC(C)(COC(=O)OCN(C(=O)c1cc(-c2cnn(-c3c(Cl)cc(C(F)(C(F)(F)F)C(F)(F)F)cc3OC(F)(F)F)c2)ccc1Cl)C1(C#N)CC1)C(=O)O [Example 41, 3-[({[(2-Chloro-5-{1-[2-chloro-4-(1,1,1,2,3,3,3-heptafluoropropan-2-yl)-6-(trifluoromethoxy)phenyl]-1H-pyrazol-4-yl}benzoyl)(1-cyanocyclopropyl)amino]methoxy}carbonyl)oxy]-2,2-dimethylpropanoic Acid] | 4 µg/mL (≈ 4.86 µM)
N#CC1(N(COC(=O)OCC(=O)O)C(=O)c2cc(-c3cnn(-c4c(Cl)cc(C(F)(C(F)(F)F)C(F)(F)F)cc4OC(F)(F)F)c3)ccc2Cl)CC1 [Example 19, [({[(2-chloro-5-{1-[2-chloro-4-(1,1,1,2,3,3,3-heptafluoropropan-2-yl)-6-(trifluoromethoxy)phenyl]-1H-pyrazol-4-yl}benzoyl)(1-cyanocyclopropyl)amino]methoxy}carbonyl)oxy]acetic Acid] | 42 µg/mL (≈ 53.8 µM)
Cn1nc(C(F)(F)C(F)(F)F)c(C(F)(F)F)c1-n1cc(-c2ccc(Cl)c(C(=O)N(COC(=O)O[C@H]3CC[C@H](C(=O)O)CC3)C3(C#N)CC3)c2)cn1 [Example 24, Trans-4-[({[{2-Chloro-5-[2′-methyl-5′-(pentafluoroethyl)-4′-(trifluoromethyl)-2′H-[1,3′-bipyrazol]-4-yl]benzoyl}(1-cyanocyclopropyl)amino]methoxy}carbonyl)oxy]cyclohexane-1-carboxylic Acid] | 57 µg/mL (≈ 75.7 µM)
N#CC1(N(COC(=O)OCCOC(=O)CCC(=O)O)C(=O)c2cc(-c3cnn(-c4c(Cl)cc(C(F)(C(F)(F)F)C(F)(F)F)cc4OC(F)(F)F)c3)ccc2Cl)CC1 [Example 3, 1-(2-Chloro-5-{1-[2-chloro-4-(1,1,1,2,3,3,3-heptafluoropropan-2-yl)-6-(trifluoromethoxy)phenyl]-1H-pyrazol-4-yl}phenyl)-2-(1-cyanocyclopropyl)-1,5,10-trioxo-4,6,9-trioxa-2-azatridecan-13-oic Acid] | 6 µg/mL (≈ 6.92 µM)
Cn1nc(C(F)(F)C(F)(F)F)c(C(F)(F)F)c1-n1cc(-c2ccc(Cl)c(C(=O)N(COC(=O)OCCOC(=O)CC(C)(C)C(=O)O)C3(C#N)CC3)c2)cn1 [Example 40, 1-{2-Chloro-5-[2′-methyl-5′-(pentafluoroethyl)-4′-(trifluoromethyl)-2′H-[1,3′-bipyrazol]-4-yl]phenyl}-2-(1-cyanocyclopropyl)-12,12-dimethyl-1,5,10-trioxo-4,6,9-trioxa-2-azatridecan-13-oic Acid] | 43 µg/mL (≈ 53.8 µM)
Cn1nc(C(F)(F)C(F)(F)F)c(C(F)(F)F)c1-n1cc(-c2ccc(Cl)c(C(=O)N(COC(=O)O[C@H]3CC[C@@H](OC(=O)/C=C/C(=O)O)CC3)C3(C#N)CC3)c2)cn1 [Example 32, Cis-(2E)-4-({-4-[({[{2-Chloro-5-[2′-methyl-5′-(pentafluoroethyl)-4′-(trifluoromethyl)-2′H-[1,3′-bipyrazol]-4-yl]benzoyl}(1-cyanocyclopropyl)amino]methoxy}carbonyl)oxy]cyclohexyl}oxy)-4-oxobut-2-enoic Acid] | 41 µg/mL (≈ 49.8 µM)
N#CC1(N(COC(=O)OCCOC(=O)CCCC(=O)O)C(=O)c2cc(-c3cnn(-c4c(Cl)cc(C(F)(C(F)(F)F)C(F)(F)F)cc4OC(F)(F)F)c3)ccc2Cl)CC1 [Example 12, 1-(2-Chloro-5-{1-[2-chloro-4-(1,1,1,2,3,3,3-heptafluoropropan-2-yl)-6-(trifluoromethoxy)phenyl]-1H-pyrazol-4-yl}phenyl)-2-(1-cyanocyclopropyl)-1,5,10-trioxo-4,6,9-trioxa-2-azatetradecan-14-oic Acid] | 3 µg/mL (≈ 3.4 µM)
CC(C)(COCCOC(=O)OCN(C(=O)c1cc(-c2cnn(-c3c(Cl)cc(C(F)(C(F)(F)F)C(F)(F)F)cc3OC(F)(F)F)c2)ccc1Cl)C1(C#N)CC1)C(=O)O [Example 8, 1-(2-chloro-5-{1-[2-chloro-4-(1,1,1,2,3,3,3-heptafluoropropan-2-yl)-6-(trifluoromethoxy)phenyl]-1H-pyrazol-4-yl}phenyl)-2-(1-cyanocyclopropyl)-11,11-dimethyl-1,5-dioxo-4,6,9-trioxa-2-azadodecan-12-oic Acid] | 1 µg/mL (≈ 1.15 µM)
Cn1nc(C(F)(F)C(F)(F)F)c(C(F)(F)F)c1-n1cc(-c2ccc(Cl)c(C(=O)N(COC(=O)O[C@H]3CC[C@@H](C(=O)O)CC3)C3(C#N)CC3)c2)cn1 [Example 23, Cis-4-[({[{2-Chloro-5-[2′-methyl-5′-(pentafluoroethyl)-4′-(trifluoromethyl)-2′H-[1,3′-bipyrazol]-4-yl]benzoyl}(1-cyanocyclopropyl)amino]methoxy}carbonyl)oxy]cyclohexane-1-carboxylic Acid] | 50 µg/mL (≈ 66.4 µM)
N#CC1(N(COC(=O)O[C@H]2CC[C@@H](OC(=O)CCC(=O)O)CC2)C(=O)c2cc(-c3cnn(-c4c(Cl)cc(C(F)(C(F)(F)F)C(F)(F)F)cc4OC(F)(F)F)c3)ccc2Cl)CC1 [Example 15, 4-({cis-4-[({[(2-chloro-5-{1-[2-chloro-4-(1,1,1,2,3,3,3-heptafluoropropan-2-yl)-6-(trifluoromethoxy)phenyl]-1H-pyrazol-4-yl}benzoyl)(1-cyanocyclopropyl)amino]methoxy}carbonyl)oxy]cyclohexyl}oxy)-4-oxobutanoic Acid] | 1 µg/mL (≈ 1.09 µM)
Cn1nc(C(F)(F)C(F)(F)F)c(C(F)(F)F)c1-n1cc(-c2ccc(Cl)c(C(=O)N(COC(=O)OCC(C)(C)COC(=O)CCC(=O)O)C3(C#N)CC3)c2)cn1 [Example 29, 1-{2-Chloro-5-[2′-methyl-5′-(pentafluoroethyl)-4′-(trifluoromethyl)-2′H-[1,3′-bipyrazol]-4-yl]phenyl}-2-(1-cyanocyclopropyl)-8,8-dimethyl-1,5,11-trioxo-4,6,10-trioxa-2-azatetradecan-14-oic Acid] | 35 µg/mL (≈ 43 µM)
Cn1nc(C(F)(F)C(F)(F)F)c(C(F)(F)F)c1-n1cc(-c2ccc(Cl)c(C(=O)N(COC(=O)OCCCC(=O)O)C3(C#N)CC3)c2)cn1 [Example 20, 4-[({[{2-Chloro-5-[2′-methyl-5′-(pentafluoroethyl)-4′-(trifluoromethyl)-2′H-[1,3′-bipyrazol]-4-yl]benzoyl}(1-cyanocyclopropyl)amino]methoxy}carbonyl)oxy]butanoic Acid] | 212 µg/mL (≈ 297 µM)
